Results: ChEMBL document CHEMBL3885881, “DrugMatrix”

Organism: Rattus norvegicus
Experiment: DrugMatrix - Regimen: Daily Repeat
Type: toxicity, organism-based, Sprague-Dawley
Design: regimen Daily Repeat, gender Male, age 6-8 weeks
Details: in vivo, po, route oral GAVAGE, vehicle .5 % CMC; for BASOPHIL / EOSINOPHIL / ERYTHROCYTE COUNT / HEMATOCRIT / LEUKOCYTE COUNT / LYMPHOCYTE / MEAN CORPUSCULAR HEMOGLOBIN / MEAN CORPUSCULAR HEMOGLOBIN CONCENTRATION / MEAN CORPUSCULAR VOLUME / MONOCYTE / NEUTROPHIL / PLATELET COUNT: tissue Blood; for ALANINE AMINOTRANSFERASE / ALBUMIN / ALKALINE PHOSPHATASE / ASPARTATE AMINOTRANSFERASE / BLOOD UREA NITROGEN / CHLORIDE / CHOLESTEROL / CREATININE / GLUCOSE / PHOSPHORUS / POTASSIUM / TOTAL BILIRUBIN / TOTAL PROTEIN: tissue Plasma
[1] = 0 mg/kg, 72 h, dose level Control, time 3 day
[2] = 0 mg/kg, 120 h, dose level Control, time 5 day
[3] = 10 mg/kg, 72 h, dose level Low, time 3 day
[4] = 10 mg/kg, 120 h, dose level Low, time 5 day
[5] = 52 mg/kg, 72 h, dose level High, time 3 day
[6] = 52 mg/kg, 120 h, dose level High, time 5 day

CNCCC(Oc1ccc(C(F)(F)F)cc1)c1ccccc1 (configuration not stated) [FLUOXETINE]
BASOPHIL [1]: 0% | EOSINOPHIL [1]: 0% | ERYTHROCYTE COUNT [1]: 6.34 x10E6/uL | HEMATOCRIT [1]: 37.62% | LEUKOCYTE COUNT [1]: 11.18 x10E3/uL | LYMPHOCYTE [1]: 87.5% | MEAN CORPUSCULAR HEMOGLOBIN [1]: 23.48 pg | MEAN CORPUSCULAR HEMOGLOBIN CONCENTRATION [1]: 39.5 G/DL | MEAN CORPUSCULAR VOLUME [1]: 59.45 fL | MONOCYTE [1]: 1.67% | NEUTROPHIL [1]: 10.83% | PLATELET COUNT [1]: 1074.83 x10E3/uL | ALANINE AMINOTRANSFERASE [1]: 36.5 u/L | ALBUMIN [1]: 3.9 G/DL | ALKALINE PHOSPHATASE [1]: 370.17 u/L | ASPARTATE AMINOTRANSFERASE [1]: 63.17 u/L | BLOOD UREA NITROGEN [1]: 16.83 mg/dL | CHLORIDE [1]: 99.33 MEQ/L | CHOLESTEROL [1]: 64.33 mg/dL | CREATININE [1]: 0.55 mg/dL | GLUCOSE [1]: 173.5 mg/dL | PHOSPHORUS [1]: 10.08 mg/dL | POTASSIUM [1]: 6.23 MEQ/L | TOTAL BILIRUBIN [1]: 0.52 mg/dL | TOTAL PROTEIN [1]: 6.35 G/DL | BASOPHIL [2]: 0% | EOSINOPHIL [2]: 0.17% | ERYTHROCYTE COUNT [2]: 6.12 x10E6/uL | HEMATOCRIT [2]: 37.08% | LEUKOCYTE COUNT [2]: 11.87 x10E3/uL | LYMPHOCYTE [2]: 83.33% | MEAN CORPUSCULAR HEMOGLOBIN [2]: 24.25 pg | MEAN CORPUSCULAR HEMOGLOBIN CONCENTRATION [2]: 39.97 G/DL | MEAN CORPUSCULAR VOLUME [2]: 60.65 fL | MONOCYTE [2]: 1.5% | NEUTROPHIL [2]: 15% | PLATELET COUNT [2]: 1042.83 x10E3/uL | ALANINE AMINOTRANSFERASE [2]: 46 u/L | ALBUMIN [2]: 3.82 G/DL | ALKALINE PHOSPHATASE [2]: 369.5 u/L | ASPARTATE AMINOTRANSFERASE [2]: 65 u/L | BLOOD UREA NITROGEN [2]: 16.33 mg/dL | CHLORIDE [2]: 100.67 MEQ/L | CHOLESTEROL [2]: 57.17 mg/dL | CREATININE [2]: 0.53 mg/dL | GLUCOSE [2]: 163.33 mg/dL | PHOSPHORUS [2]: 9.53 mg/dL | POTASSIUM [2]: 6.27 MEQ/L | TOTAL BILIRUBIN [2]: 0.55 mg/dL | TOTAL PROTEIN [2]: 6.32 G/DL | BASOPHIL [3]: 0% | EOSINOPHIL [3]: 0% | ERYTHROCYTE COUNT [3]: 6.11 x10E6/uL | HEMATOCRIT [3]: 38.43% | LEUKOCYTE COUNT [3]: 11.83 x10E3/uL | LYMPHOCYTE [3]: 84.67% | MEAN CORPUSCULAR HEMOGLOBIN [3]: 24.53 pg | MEAN CORPUSCULAR HEMOGLOBIN CONCENTRATION [3]: 39 G/DL | MEAN CORPUSCULAR VOLUME [3]: 62.8 fL | MONOCYTE [3]: 1.67% | NEUTROPHIL [3]: 13.67% | PLATELET COUNT [3]: 1383.67 x10E3/uL | ALANINE AMINOTRANSFERASE [3]: 32.67 u/L | ALBUMIN [3]: 4 G/DL | ALKALINE PHOSPHATASE [3]: 373.67 u/L | ASPARTATE AMINOTRANSFERASE [3]: 53 u/L | BLOOD UREA NITROGEN [3]: 15.67 mg/dL | CHLORIDE [3]: 99.33 MEQ/L | CHOLESTEROL [3]: 78 mg/dL | CREATININE [3]: 0.5 mg/dL | GLUCOSE [3]: 162 mg/dL | PHOSPHORUS [3]: 11 mg/dL | POTASSIUM [3]: 5.93 MEQ/L | TOTAL BILIRUBIN [3]: 0.33 mg/dL | TOTAL PROTEIN [3]: 6.6 G/DL | BASOPHIL [4]: 0% | EOSINOPHIL [4]: 0.33% | ERYTHROCYTE COUNT [4]: 6.65 x10E6/uL | HEMATOCRIT [4]: 39.33% | LEUKOCYTE COUNT [4]: 11.3 x10E3/uL | LYMPHOCYTE [4]: 91% | MEAN CORPUSCULAR HEMOGLOBIN [4]: 23.1 pg | MEAN CORPUSCULAR HEMOGLOBIN CONCENTRATION [4]: 39.1 G/DL | MEAN CORPUSCULAR VOLUME [4]: 59.13 fL | MONOCYTE [4]: 0.67% | NEUTROPHIL [4]: 8% | PLATELET COUNT [4]: 1162.33 x10E3/uL | ALANINE AMINOTRANSFERASE [4]: 35 u/L | ALBUMIN [4]: 3.83 G/DL | ALKALINE PHOSPHATASE [4]: 381 u/L | ASPARTATE AMINOTRANSFERASE [4]: 55 u/L | BLOOD UREA NITROGEN [4]: 13.67 mg/dL | CHLORIDE [4]: 97.67 MEQ/L | CHOLESTEROL [4]: 67.67 mg/dL | CREATININE [4]: 0.57 mg/dL | GLUCOSE [4]: 169 mg/dL | PHOSPHORUS [4]: 12.13 mg/dL | POTASSIUM [4]: 6.2 MEQ/L | TOTAL BILIRUBIN [4]: 0.43 mg/dL | TOTAL PROTEIN [4]: 6.3 G/DL | BASOPHIL [5]: 0% | EOSINOPHIL [5]: 0.33% | ERYTHROCYTE COUNT [5]: 6.76 x10E6/uL | HEMATOCRIT [5]: 40.83% | LYMPHOCYTE [5]: 90% | MEAN CORPUSCULAR HEMOGLOBIN [5]: 24.27 pg | MEAN CORPUSCULAR HEMOGLOBIN CONCENTRATION [5]: 40.07 G/DL | MEAN CORPUSCULAR VOLUME [5]: 60.57 fL | MONOCYTE [5]: 1% | NEUTROPHIL [5]: 8.67% | PLATELET COUNT [5]: 1353.67 x10E3/uL | ALANINE AMINOTRANSFERASE [5]: 23.67 u/L | ALBUMIN [5]: 3.93 G/DL | ALKALINE PHOSPHATASE [5]: 317 u/L | ASPARTATE AMINOTRANSFERASE [5]: 55.67 u/L | BLOOD UREA NITROGEN [5]: 14.67 mg/dL | CHLORIDE [5]: 97.67 MEQ/L | CHOLESTEROL [5]: 88.33 mg/dL | CREATININE [5]: 0.63 mg/dL | GLUCOSE [5]: 135.67 mg/dL | POTASSIUM [5]: 6.83 MEQ/L | TOTAL BILIRUBIN [5]: 0.47 mg/dL | BASOPHIL [6]: 0% | EOSINOPHIL [6]: 0% | ERYTHROCYTE COUNT [6]: 7.1 x10E6/uL | HEMATOCRIT [6]: 41.93% | LEUKOCYTE COUNT [6]: 12.47 x10E3/uL | LYMPHOCYTE [6]: 88.67% | MEAN CORPUSCULAR HEMOGLOBIN [6]: 23.53 pg | MEAN CORPUSCULAR HEMOGLOBIN CONCENTRATION [6]: 39.7 G/DL | MEAN CORPUSCULAR VOLUME [6]: 59.33 fL | MONOCYTE [6]: 0.33% | NEUTROPHIL [6]: 11% | PLATELET COUNT [6]: 1164.33 x10E3/uL | ALANINE AMINOTRANSFERASE [6]: 37 u/L | ALBUMIN [6]: 3.8 G/DL | ALKALINE PHOSPHATASE [6]: 263.33 u/L | ASPARTATE AMINOTRANSFERASE [6]: 65.67 u/L | BLOOD UREA NITROGEN [6]: 13.67 mg/dL | CHLORIDE [6]: 98.33 MEQ/L | CHOLESTEROL [6]: 79.67 mg/dL | CREATININE [6]: 0.6 mg/dL | GLUCOSE [6]: 142.33 mg/dL | PHOSPHORUS [6]: 12.27 mg/dL | POTASSIUM [6]: 6.23 MEQ/L | TOTAL BILIRUBIN [6]: 0.4 mg/dL | TOTAL PROTEIN [6]: 6.3 G/DL
